Laboratory results: patent publication US20060147516A1, “Taste masking system for alprazolam” (CIMA LABS INC., priority 2005, published 2006)

Experiment: Solubility of alprazolam in ethanol (coating solvent)
Type: physicochemical
Conditions: at working concentrations in ethanol
Description: The resulting particles were discreet, non-tacky and exceptionally workable. By working with various materials, and without wishing to be bound by a particular theory, it was determined that certain drugs react and/or interact with the polymer materials in the taste masking coating material, changing their individual characters rendering the material more tacky. The present invention intends to encompass only those active pharmaceutical ingredients that would not so adversely affect workability so as to prevent their effective use in forming discrete, preferably free flowing, well coated, well characterized solid supports, which may be further coated. Active pharmaceutical ingredients that may be used in addition to alprazolam in accordance with the present invention may include, without limitation, analgesics, anti-inflammatories, antipyretics, antibiotics, antimicrobials, anxiolytics, laxatives, anorexics, antihistamines, antidepressants, antiasthmatics, antidiuretics, antiflatuents, antimigraine agents, antispasmodics, sedatives, antihyperactives, antihypertensives, tranquilizers, decongestants, beta blockers, peptides, proteins, oligonucleotides and other substances of biological origin, and combinations thereof. Also contemplated are the drugs and pharmaceutically active ingredients described in Mantelle, U.S. Pat. No. 5,234,957, in columns 18 through 21. […]

Structure (SMILES): Cc1nnc2n1-c1ccc(Cl)cc1C(c1ccccc1)=NC2 [alprazolam]
- solubility in ethanol: sparingly soluble
